Source: US5919635A (ZymoGenetics, Inc., priority 1995, dated 1999)
No end group written: not given here.

Tests used:
[1] = tested on: CRE-luciferase (KZ6) in BHK570 cells; test: Luciferase assay response to forskolin of KZ6-transfected BHK570 clone BHK/KZ6-19-46; type: cell-based
Protocol: Plasmid KZ6 was transfected into BHK570 cells (deposited with the American Type Culture Collection under Accession No. 10314) using the calcium phosphate precipitation method essentially as described by Graham and Van der Eb (Virology 52:456, 1973, which is incorporated by reference herein in its entirety). The transfected cells were grown in growth medium (Dulbecco's modified Eagle's medium (DMEM) containing 10% fetal calf serum, 1× PSN antibiotic mix (GIBCO-BRL), and 2.0 mM L-glutamine). After a few days in non-selective growth medium, the growth medium was replaced with G418 selection medium (growth medium containing 500 μg/ml of G418). The cells were then allowed to grow to confluency after which they are trypsinized and plated at limiting dilution into the wells of 96-well plates. The cells were grown for one to two weeks in G418 selection media. Clones from wells containing single colonies were assayed for the ability to respond to forskolin in the luciferase assay described below. Forskolin elevates the cellular cAMP level and thus the associated cAMP-dependent biological response pathways in a receptor-independent manner.
(§1) Following induction, the medium was removed, and the wells were washed once with 200 μl/well PBS. […] The fold induction of luciferase for each agonist was calculated as follows: [formula]

isolated human islets = test: Insulin secretory function of isolated human pancreatic islets after perfusion; type: cell-based
Protocol: Islet cells were isolated from human pancreata obtained from organ transplant donors for whom a matched recipient was not available. After in situ perfusion with cold UW solution (Du Pont, Boston, Mass.), each pancreas was carefully excised, the pancreatic duct cannulated, and 4 mg/ml collagenase solution (Type V, Sigma, St. Louis, Mo.) infused at a constant rate, first at 4° C. and then 39° C. The gland was teased apart, and liberated fragments were washed by centrifugation, triturated through needles of decreasing caliber, and purified by discontinuous Ficoll density centrifugation (Warnock, Diabetes 35(Suppl. 1):136-139, 1989). Material harvested from the upper interfaces was pooled and counted after a determination of islet purity by dithiazone staining. Islets used in library construction were greater than 65% pure, while islets used in Northern blots were greater than 40% pure. The average islet diameter was 175 μm.

[2] = molecular target: Rat Glucagon Receptor (pLJ4) in COS-7 cells (Rattus norvegicus, UniProt P30082); test: cAMP accumulation (Amersham SPA kit) in COS-7 cells transfected with pLJ4; type: cell-based; settings: 100 nM to 1000 nM; pLJ4 transfectants
rat glucagon receptor = molecular target: T1, rat glucagon receptor (Rattus norvegicus, UniProt P30082); test: CRE-luciferase induction in pLJ4 transfectant clone KZ6/rGR-DHFR-2; type: cell-based; settings: listed 200 nM GLP, 20 nM VIP, 100 nM CT, 4 hours at 37° C.
T1 construct: pLJ4 contained an approximately 2 kb insert encoding a 485 amino acid protein; expressed in transfected cells; host or cells: BHK/KZ6-19-46 (BHK570 with CRE-luciferase plasmid KZ6), clone KZ6/rGR-DHFR-2
Protocol: D. Luciferase and Adenylate Cyclase Activity Assays on Whole Cells
BHK/KZ6-19-46 cells were co-transfected with pLJ4 and pLJ1 or with pZCEP and pLJ1 (pZCEP transfectants were used as negative controls) as described above using calcium phosphate-mediated transfection. Transfectants were selected in 250 nM methotrexate as described previously.
Transfectants were assayed in triplicate for the induction of the CRE-luciferase response by selected agonists. Six random pLJ4 transfectants were assayed, and random pZCEP transfectants were assayed (negative controls). Microtiter assay plates were set up such that each well contained 2×10^4 cells in 100 μl of selection medium, and the cells were grown overnight. The agonists were prepared in selection medium, at the 2× final assay concentration listed:
Induction was initiated by the addition of 100 μl for each 2× solution in triplicate sample wells. Uninduced levels were determined in triplicate wells to which 100 μl of DMEM containing 10% fetal calf serum was added. The plates were incubated for four hours at 37° C., 5% CO2 to allow induction of luciferase production.
as §1

[3] = molecular target: T2, cloned receptor (rat glucagon receptor, pLJ4) (Rattus norvegicus, UniProt P30082); test: Competition binding / Scatchard analysis with ^125 I-glucagon on membranes of pLJ4 BHK transfectants; settings: micromolar amounts (Table 7: 1 μM glucagon and des-His^1 [Glu^9]glucagon amide)
T2 construct: pLJ4 contained an approximately 2 kb insert encoding a 485 amino acid protein; expressed in transfected cells; host or cells: BHK570
Protocol: Membranes from the pLJ4 BHK transfectants were compared with rat liver membrane preparations for the ability to bind ^125 I-glucagon. Membranes were prepared essentially described by Rodbell et al. (J. Biol Chem. 246:1861-1871, 1971, which is incorporated by reference herein in its entirety). Two batches of liver membranes were each prepared from approximately 80 gm of liver from 12 to 16 decapitated young female rats. The livers were removed quickly and placed into an iced beaker. The livers were separated into ten-gram portions. The portions were minced with scissors, and connective tissue was removed during the mincing procedure. The portions were separately homogenized in a Dounce homogenizer. To each portion, 25 ml of Medium (Table 2) was added to the minced tissue in the homogenizer, and the tissue was homogenized in an ice bucket with eight vigorous strokes of the loose pestle. After homogenization, the homogenates were pooled into 450 ml of cold Medium (Table 2). The pooled homogenates were stirred for 3 minutes and filtered through two layers of cheesecloth followed by filtering through four layers of cheesecloth. The homogenates were then centrifuged for 30 minutes at 1500×g at 4° C. The supernatants were discarded, and the pellets were pooled into a clean Dounce homogenizer. The pellets were resuspended with three gentle strokes of the loose pestle. The resuspended pellets were decanted into a 250 ml graduate containing 62 ml of 69% Sucrose Solution (Table 2). Distilled water was added to a final volume of 110 ml, and the mixture was thoroughly mixed and kept cold. The concentration of the solution was adjusted to 44.0%+/-0.1% using 69% sucrose or water as measured by a refractometer (Bausch & Lomb, Rochester, N.Y.). […]
To each tube 100 μl of 2× binding buffer; 20 μl of ^125 I-glucagon (Amersham); 20 μl of 1 mM NaHCO3; 20 μl 10 mM HOAc, 0.5% BSA (Novo Nordisk N/A, Bagsvaerd, Denmark); and 40 μl of distilled water were added. […] The supernatants from each sample were aspirated, and the pellets were counted. […]

[4] = molecular target: Human Glucagon Receptor (pLJ6') (Homo sapiens, UniProt P47871); test: cAMP accumulation in pLJ6'-transfected cells; type: cell-based
Protocol: The related peptides secretin, VIP, PTH, GLP and calcitonin were each added to transfectants at concentrations of 100 nM to 1000 nM and assayed for their ability to induce cAMP levels.
Transfected cells were selected in the presence of G418 until single colonies were visible. Single colonies were cloned using cloning cylinders.
The PLJ6'-transfected cells were assayed for cAMP accumulation essentially as described in Example 8.C.

Rat Glucagon Receptor (pLJ4) in COS-7 cells, sequence (P30082 27-485): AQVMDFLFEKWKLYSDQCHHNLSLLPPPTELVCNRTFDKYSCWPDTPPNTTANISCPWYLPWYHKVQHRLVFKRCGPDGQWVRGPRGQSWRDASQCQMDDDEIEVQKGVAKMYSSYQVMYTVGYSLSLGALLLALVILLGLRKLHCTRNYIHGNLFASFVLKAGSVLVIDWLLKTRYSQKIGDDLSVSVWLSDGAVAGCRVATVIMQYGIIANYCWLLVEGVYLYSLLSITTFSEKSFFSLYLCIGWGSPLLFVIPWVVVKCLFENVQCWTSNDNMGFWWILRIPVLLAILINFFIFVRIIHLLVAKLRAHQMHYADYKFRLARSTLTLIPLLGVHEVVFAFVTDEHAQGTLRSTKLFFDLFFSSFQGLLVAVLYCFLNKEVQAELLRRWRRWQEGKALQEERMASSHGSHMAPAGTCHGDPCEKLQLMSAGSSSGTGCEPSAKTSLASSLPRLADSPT
Human Glucagon Receptor (pLJ6'), sequence (P47871 26-477): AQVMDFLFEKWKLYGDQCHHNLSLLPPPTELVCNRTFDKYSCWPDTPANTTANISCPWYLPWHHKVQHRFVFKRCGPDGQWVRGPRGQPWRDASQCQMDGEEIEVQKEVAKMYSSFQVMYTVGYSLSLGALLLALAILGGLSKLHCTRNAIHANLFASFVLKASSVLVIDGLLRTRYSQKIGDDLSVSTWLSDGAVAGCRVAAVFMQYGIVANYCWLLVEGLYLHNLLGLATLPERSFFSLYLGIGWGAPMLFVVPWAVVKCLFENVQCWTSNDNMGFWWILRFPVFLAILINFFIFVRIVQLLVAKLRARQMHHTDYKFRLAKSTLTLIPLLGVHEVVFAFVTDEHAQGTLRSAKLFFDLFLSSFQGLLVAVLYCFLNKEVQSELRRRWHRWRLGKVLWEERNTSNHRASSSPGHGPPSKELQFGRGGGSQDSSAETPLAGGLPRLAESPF
T2 sequence (P30082 27-485): as the sequence (P30082 27-485) above
T1 sequence (P30082 27-485): as above

C=C[C@@]1(C)CC(=O)[C@]2(O)[C@@]3(C)[C@@H](O)CCC(C)(C)[C@@H]3[C@H](O)[C@H](OC(C)=O)[C@@]2(C)O1 [forskolin]
ability to respond to forskolin in the luciferase assay [1]: capable of responding to forskolin

O=C[C@H](O)[C@@H](O)[C@H](O)[C@H](O)CO [glucose]
insulin secretory function (in words) (isolated human islets): both first and second phase insulin secretory function

CC(C)Cn1c(=O)n(C)c(=O)c2[nH]cnc21 [isobutylmethylxanthine (IBMX), isobutylmethylxanthine]
insulin secretory function (in words) (isolated human islets): both first and second phase insulin secretory function

calcitonin
ability to induce cAMP levels [2]: none of the related peptides were capable of inducing significant increases in cAMP levels
induction of luciferase (in words) (rat glucagon receptor): not induced

des-His^1 [Glu^9 ]glucagon amide
ability to compete for ^125 I-glucagon binding [3]: able to compete

secretin: porcine secretin (Sigma) (HSDGTFTSELSRLRDSARLQRLLQGLV; ends and bridges not checked; UniProt P63298 33-59, looked up)
ability to induce cAMP levels [2]: none of the related peptides were capable of inducing significant increases in cAMP levels
cAMP accumulation (in words) [4]: no increased cAMP accumulation

B1: PTH: bovine parathyroid hormone (PTH) (Sigma) (peptide, UniProt P01268 32-115, looked up)
Parathyroid hormone: AVSEIQFMHNLGKHLSSMERVEWLRKKLQDVHNFVALGASIAYRDGSSQRPRKKEDNVLVESHQKSLGEADKADVDVLIKAKPQ
modifications: Parathyroid hormone
ability to induce cAMP levels [2]: none of the related peptides were capable of inducing significant increases in cAMP levels
